Results published in patent US20110257146A1, “Method of Treating Kcnq Related Disorders Using Organozinc Compounds” (The johns Hopkins University, priority 2006, published 2011).
Where “and” joins values, the source holds several entries; their conditions need not be identical. Equal entries are not always repeated.

Tests used:
Type in all cases: cell-based
[1] = molecular target: T1, Kv4.2 A-type potassium channel (Homo sapiens, UniProt Q9NZV8); test: Channel activity in Kv4.2 stable line
T1 construct: expressed in transfected cells
Protocol: (§1) Cell culture and transient transfection—Chinese Hamster Ovary (CHO) cells were grown in 50/50 DMEM/F12 (Cellgro) with 10% FBS (Gibco), 100 U/ml penicillin (Cellgro), 100 μg/ml streptomycin (Cellgro) and 2 mM L-glutamine (Gibco). At 24 hours before transfection, cells were split and plated in 60 mm dishes and were transfected with Lipofectamine2000™ reagent (Invitrogen) according to the manufacturer's instruction. At 24 hours after transfection, cells were split and re-plated onto coverslips coated with poly-L-lysine (Sigma). Plasmid expressing CD4 cDNA as a marker was cotransfected with the channel cDNAs of hKCNQ1 (from Dr. Michael Sanguinetti), hKCNQ4 (from Dr. Vitya Vardanyan), rKCNQ2, rKCNQ3, and hKCNQ5 (from Drs. David McKinnon, Mark Shapiro, and Thomas Jentsch). Prior to recording, anti-CD4 Dynabeads (Dynal. Biotech. Inc.) were added into the medium to allow for identification of the transfected cells. Stable lines expressing Kv2.1, hERG, and Kv4.2 were generated by standard protocols using pcDNA3.1 and maintained at complete medium supplemented with 500 μg/ml G418. […]
(§2) Electrophysiological Recording—Standard whole-cell recording was used. […] Current and voltage were recorded using an Axopatch-200A amplifier, filtered at 1 kHz and digitized using a DigiData 1322A with pClamp 9.2 software (Axon Instruments, Foster City, Calif.). […]

[2] = molecular target: T2, KCNQ2 (Rattus norvegicus, UniProt O88943); test: Non-radioactive rubidium efflux assay (KCNQ2 screen, HEK 293); design: expressed in transfected cells
Protocol: To identify compounds with agonistic activities for M currents, stable cell lines for both KCNQ2 and KCNQ2/3 were generated. Under a pre-calibrated condition of medium-level rubidium efflux responses, more than 20,000 small molecule compounds were screened at a concentration of 10 μM. The selected condition allowed for identification of both inhibitors and potentiators. Selected compounds either increased or decreased the rubidium responses by more than 15% when compared to the control. A subset of the compounds were selected and validated for both potency and specificity.
KCNQ2 screen—HEK 293 cells stably expressing rat KCNQ2 were resuspended in DMEM/F12 medium and plated at a density of 4×10^4/well in poly-L-Lysine coated 96-well plates. Cells were then incubated at 37° C. with 5% CO2 overnight. 30 μl/well DMEM/F12 medium containing 30 mM RbCl was added to the cells the next day, followed by incubation for an additional 3 hours. Cell plating and reagent dispensing were done using a Multidrop 384 dispenser (Thermo Electron Corporation).
Compound addition and Rb^+ efflux assay were programmed and performed on a Cybi-Well™ system and Tekbench liquid handling system (Tekcel Inc., Hopkinton, Mass.), respectively. […] Rb^+ concentrations in both supernatant and cell lysates were measured by atomic absorption spectrometry using an ICR8000 instrument (Aurora Biomed, Vancouver, Canada).

[3] = molecular target: T2, KCNQ2; test: Single channel outside-out patch recording of KCNQ2; design: expressed in transfected cells; host or cells: CHO cells
Protocol: For single channel recording procedure, outside-out patch recording was used. The pipettes had resistances of 7-15 MΩ when filled with the intracellular solution of the following composition (mM): KCl 145, MgCl2 1, EGTA 5, HEPES 10, MgATP 5 (pH 7.3). Extracellular solution contained (mM): NaCl 150, KCl 5, CaCl2 2, MgCl2 1, HEPES 10, glucose 10 (pH 7.4). Current and voltage were recorded using an Axopatch-200B amplifier, sample at 4 kHz and filtered at 200 Hz, and digitized using a DigiData 1322A with pClamp 9.2 software (Axon Instruments, Foster City, Calif.).
The open probability (Po) and single channel current (i) were calculated by fitting all-point histograms with single- or multi-Gaussian curves. The ratio of the area under the fitted ‘open’ Gaussian to the total area under the entire Gaussian was taken as Po, and the difference between the fitted “closed” and “open” peaks was taken as i, single channel conductance (γ) was calculated by the equation: γ=i/(V−V5).

[4] = molecular target: T3, Kv2.1 delay rectifier voltage-gated potassium channel (Homo sapiens, UniProt Q14721); test: Channel activity in Kv2.1 stable line
T3 construct: expressed in transfected cells
Protocol: as §1, §2

T3 sequence (Q14721 whole entry): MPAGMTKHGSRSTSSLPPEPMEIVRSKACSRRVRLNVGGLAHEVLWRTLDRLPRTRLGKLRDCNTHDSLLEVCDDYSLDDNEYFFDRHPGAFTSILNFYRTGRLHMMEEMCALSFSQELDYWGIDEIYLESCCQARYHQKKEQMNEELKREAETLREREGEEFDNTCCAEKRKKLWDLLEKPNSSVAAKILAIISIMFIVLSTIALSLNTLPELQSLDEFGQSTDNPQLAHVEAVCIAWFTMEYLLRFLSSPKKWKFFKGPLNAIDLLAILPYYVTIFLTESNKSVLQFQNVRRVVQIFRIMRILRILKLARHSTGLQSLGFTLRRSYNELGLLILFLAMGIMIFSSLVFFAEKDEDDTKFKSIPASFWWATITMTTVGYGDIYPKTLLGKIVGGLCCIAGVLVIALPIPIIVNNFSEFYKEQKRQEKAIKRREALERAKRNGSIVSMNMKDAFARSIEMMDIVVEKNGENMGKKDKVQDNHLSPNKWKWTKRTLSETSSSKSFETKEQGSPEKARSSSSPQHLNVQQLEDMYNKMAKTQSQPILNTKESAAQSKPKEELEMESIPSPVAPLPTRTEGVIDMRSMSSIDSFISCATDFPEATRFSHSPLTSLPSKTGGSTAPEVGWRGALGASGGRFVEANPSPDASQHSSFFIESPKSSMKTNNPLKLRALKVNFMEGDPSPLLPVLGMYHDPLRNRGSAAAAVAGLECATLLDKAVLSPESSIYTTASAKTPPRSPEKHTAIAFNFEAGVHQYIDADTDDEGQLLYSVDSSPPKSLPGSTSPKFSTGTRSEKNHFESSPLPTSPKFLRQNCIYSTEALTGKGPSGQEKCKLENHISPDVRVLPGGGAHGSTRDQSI
T1 sequence (Q9NZV8 whole entry): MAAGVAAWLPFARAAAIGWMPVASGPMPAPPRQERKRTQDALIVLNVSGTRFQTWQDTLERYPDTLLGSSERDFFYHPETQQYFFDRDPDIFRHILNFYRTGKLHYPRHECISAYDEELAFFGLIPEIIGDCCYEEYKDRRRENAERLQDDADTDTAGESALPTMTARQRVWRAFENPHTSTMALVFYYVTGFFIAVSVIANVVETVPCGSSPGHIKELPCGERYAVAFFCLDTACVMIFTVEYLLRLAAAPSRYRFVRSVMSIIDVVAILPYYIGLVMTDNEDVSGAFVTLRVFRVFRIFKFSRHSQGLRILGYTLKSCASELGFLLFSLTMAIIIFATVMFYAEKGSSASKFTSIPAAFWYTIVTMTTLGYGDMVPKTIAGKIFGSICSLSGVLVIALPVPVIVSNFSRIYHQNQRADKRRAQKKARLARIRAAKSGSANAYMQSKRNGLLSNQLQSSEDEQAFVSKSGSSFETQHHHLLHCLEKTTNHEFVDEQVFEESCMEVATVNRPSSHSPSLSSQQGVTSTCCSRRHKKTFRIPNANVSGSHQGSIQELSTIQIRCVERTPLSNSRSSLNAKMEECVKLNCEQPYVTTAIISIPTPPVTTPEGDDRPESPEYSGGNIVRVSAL

SMILES: S=c1ccccn1[O][Zn][O]n1ccccc1=S [ZnPy, Zinc Pyrithione]
- potentiation of channel activity [1]: did not potentiate
- elevation of KCNQ activity by rubidium efflux [2]: unusual potency in elevating KCNQ activities
- single channel open probability (Po) ([3]; 0 mV, 10 μM ZnPy, control 0.13): 0.77±0.06 and 0.77
- fitted unitary current amplitude ([3]; 0 mV, 10 μM ZnPy, control 0.51 pA): 0.52 pA
- fold increase in Po ([3]; 10 μM ZnPy): 5.9 fold
- single channel conductance ([3]; in the presence or absence of ZnPy): 6.6±0.15 pS
- potentiation of channel activity [4]: did not potentiate
